Reference: patent US10537603B2, “Pharmaceutical composition for preventing or treating angioedema, containing extract of peony root or mixture of peony root and licorice as active ingredient” (Korea Institute of Oriental Medicine, priority 2014, dated 2020)

Assays:
[1] = tested on: human retinal pigment epithelial cell lines (ARPE-19); conditions: ARPE-19, Molecular Vision 2011; 17: 3512-3522; cited from earlier work
[2] = tested on: MNU-induced animal models; test: Comparison of CJG30R and paeoniflorin in MNU-induced age-related macular degeneration model (ONL thickness); format: in vivo, C57BL/6 mice; conditions: CJG30R 100 mg/kg, PF 6.5 mg/kg oral
Experimental: The 6-week-old male C57BL/6 mice were used after acclimatization for 1 week. To induce damage and degeneration of photoreceptor cells among morphological changes of retinal tissues appearing in macular degeneration, 1% (0.05% acetic acid) N-methyl-N-nitrosourea (MNU, Sigma, USA) was intraperitoneally injected to the 7-week-old male C57BL/6 mice (60 mg/kg). The same amount of 0.05% acetic acid was intraperitoneally administered to the normal group. CJG30R (100 mg/kg) and PF-6.6 (6.5 mg/kg) as test drugs were suspended and compounded in 0.5% sodium carboxymethyl cellulose (CMC), orally administrated one day before MNU administration, and orally administrated once per day for 7 days after MNU administration. The same amount of 0.5% CMC was orally administrated to the normal group and the MNU-induced group. After completing administration of the test drugs, eyes were enucleated by carrying out an autopsy on the mice, and then mounted on 10% neutralized formalin for one day and embedded in paraffin to prepare slide sections. Slide sections were stained with Hematoxylin & Eosin (H & E) and observed under an optical microscope. The damage and degeneration of the photoreceptor cells were measured and evaluated by thickness changes in the outer nuclear layer of the retinal tissues.

[3] = tested on: advanced glycation end product (AGE) generation; test: Inhibition of advanced glycation end product (AGE) generation, BSA with fructose/glucose, fluorescence; format: biochemical; conditions: BSA 10 mg/ml, 0.2 M fructose + 0.2 M glucose, 37° C., 7 days
Experimental: To determine the inhibitory effect of advanced glycation end product generation of the peony root extract, or the mixed extract of peony root and licorice, the present inventors used 10 mg/ml of bovine serum albumin (Sigma, St. Louis, Mo., USA) dissolved in 50 mM phosphate buffer (pH 7.4) as a protein source and a mixed liquid of 0.2 M fructose and 0.2 M glucose as a sugar source, respectively.
The extracts of <Example 1> and a positive control group (aminoguanidine) were dissolved in 30 μl of 0.2% DMSO, and then again dissolved in 15% tween 80. The protein source, the sugar source and the extracts of the present invention as prepared above were mixed and compounded to a total of 1 ml, and then each cultured at 37° C. for 7 days to allow for glycation. At this time 0.02% azide (sodium azide) was added thereto to prevent from generating bacteria during the culture period. After the culture fluorescence (spectrofluorometric detector; Bio-TEK, Synergy HT, USA; Ex: 350 nm; Em: 450 nm) was measured and then calculated with Equation 1 below, with showing the result in Table 2.

Row | SMILES | Effect on cell death due to H2O2 and oxidative stress [1] | Effect on outer nuclear layer damage as compared to the MNU administration group [2] | ONL thickness (AU) ([2]; MNU 60 mg/kg i.p., NOR 1.99 ± 0.21, MNU 0.92 ± 0.17) | ONL thickness (%) ([2]; NOR = 100, MNU = 0) | IC50, inhibitory effect of advanced glycation end product generation [3]
1 | C[C@@]12C[C@@]3(O)O[C@@H](O1)[C@]1(COC(=O)c4ccccc4)[C@H]3C[C@@]12O[C@@H]1O[C@H](CO)[C@@H](O)[C@H](O)[C@H]1O [PF-6.5, paeoniflorin] | inhibitory effects | no effect at all | 0.96 ± 0.17 AU | 3.52 ± 16.11% | 
2 | N=C(N)NN [Aminoguanidine, aminoguanidine] |  |  |  |  | 81.38 ± 2.70 µg/mL
